We go through 11 molecules from patent US9932331B2, “Phenyl tetrahydroisoquinoline compound substituted with heteroaryl” (TAISHO PHARMACEUTICAL CO., LTD, priority 2014, dated 2018).

For one experiment, the target named is T1, human NHE3 (Homo sapiens, UniProt P48764).
T1 sequence (P48764 26-834): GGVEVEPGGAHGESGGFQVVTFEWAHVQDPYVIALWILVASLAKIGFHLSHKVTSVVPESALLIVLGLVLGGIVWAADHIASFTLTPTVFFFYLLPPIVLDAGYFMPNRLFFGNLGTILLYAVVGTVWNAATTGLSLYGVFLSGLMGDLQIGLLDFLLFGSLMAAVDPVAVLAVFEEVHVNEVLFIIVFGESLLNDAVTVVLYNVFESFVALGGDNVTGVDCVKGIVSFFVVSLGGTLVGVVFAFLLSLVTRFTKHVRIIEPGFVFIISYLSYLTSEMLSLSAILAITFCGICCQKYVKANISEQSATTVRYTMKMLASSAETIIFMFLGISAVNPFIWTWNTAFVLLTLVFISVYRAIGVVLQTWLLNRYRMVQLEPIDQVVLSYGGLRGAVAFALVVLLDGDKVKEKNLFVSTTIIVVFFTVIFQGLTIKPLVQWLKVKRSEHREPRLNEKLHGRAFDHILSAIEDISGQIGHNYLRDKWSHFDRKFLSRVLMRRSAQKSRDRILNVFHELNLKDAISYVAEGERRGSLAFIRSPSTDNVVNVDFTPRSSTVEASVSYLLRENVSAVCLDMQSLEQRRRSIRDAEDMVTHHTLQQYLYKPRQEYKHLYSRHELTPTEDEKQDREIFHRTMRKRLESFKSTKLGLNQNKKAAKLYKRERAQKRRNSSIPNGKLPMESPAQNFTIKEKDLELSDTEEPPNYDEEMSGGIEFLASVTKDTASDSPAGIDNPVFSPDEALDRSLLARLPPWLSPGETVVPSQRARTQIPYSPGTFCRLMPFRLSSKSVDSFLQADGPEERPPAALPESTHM
As to the kind of experiment: NHE3 inhibition test (recovery of intracellular pH in cell line stably expressing human NHE3). The experiment is classed as cell-based. To be noted: OK cells deficient in endogenous NHE stably expressing human NHE3; BCECF fluorescence, initial rate of pH recovery; read-out: human NHE3 inhibitory activity IC50. Summed up: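 Opossum kidney cells lacking endogenous NHE, stably expressing human NHE3, loaded with BCECF-AM and acid-loaded by NH4Cl washout. Compound in Na-free buffer, then Na-containing buffer (pH 7.4) added; initial pH-recovery rate by BCECF fluorescence, IC50 versus no-compound recovery.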

The subject of another experiment is SD rat. As to the kind of experiment: 32P-phosphate oral loading test using SD rat (phosphorus absorption inhibitory effect). The format is in vivo. To be noted: SD male rats, plasma radioactivity 30 minutes after 32P-phosphate solution, vs control group; for inhibition in vivo at 3 mg/kg: oral dose 3 mg/kg. As for the experimental part:
Phosphorus Absorption Inhibitory Effect of the Compound of the Present Invention in ^32P-Phosphate Oral Loading Test Using SD Rat
8-week-old SD male rats (Japan SLC, Inc.) were used as laboratory animals. Each test compound was suspended or dissolved at a concentration of 0.2 mg/mL or 0.6 mg/mL in Japanese Pharmacopoeia water for injection (manufactured by Hikari Pharmaceutical Co., Ltd.) and orally administered to each rat at a dose of 5 ml/kg body weight. Japanese Pharmacopoeia water for injection was administered at the same dose as above to a control group. 5 minutes after the administration of the test compound or water for injection, a phosphate solution (1.3 mM NaH2PO4) containing 32P-phosphate (PerkinElmer Inc.) was administered thereto at a dose of 5 ml/kg. 30 minutes after the administration of the phosphate solution, blood was collected from the tail vein, and the blood sample was immediately mixed with EDTA-2K (manufactured by Dojindo Laboratories). Then, the mixture was centrifuged at 3000 rpm at 4° C. for 10 minutes to recover plasma.
The radioactivity in 100 μL of the plasma was measured using a liquid scintillation counter and used as a phosphate absorption count. The radioactivity in the plasma of the control group was used as a control, and the rate of inhibition of phosphate absorption was determined according to the following expression: Rate of inhibition of phosphate absorption (%)=(1−Phosphate absorption count of the test compound administration group/Phosphate absorption count of the control group)×100 (2) Results

Setting [1] is: Rattus norvegicus, 0.5 h, read-out: Rate of inhibition of phosphate absorption.

Where a name gives a salt, the structure may show the parent alone.

As usually defined, the IC50 is the concentration at which inhibition is half-maximal.

Regarding `CN1Cc2c(Cl)cc(Cl)cc2[C@@H](c2cccc(-c3cc(OCCOCCOCCOCCNC(=O)COCC(=O)NCCOCCOCCOCCOc4cc(-c5cccc([C@@H]6CN(C)Cc7c(Cl)cc(Cl)cc76)c5)ncn4)ncn3)c2)C1` [Example 8-18, 1-[(6-{3-[(4R)-6,8-Dichloro-2-methyl-1,2,3,4-tetrahydroisoquinolin-4-yl]phenyl}pyrimidin-4-yl)oxy]-N-{2-[2-(2-{2-[(6-{3-[(4S)-6,8-dichloro-2-methyl-1,2,3,4-tetrahydroisoquinolin-4-yl]phenyl}pyrimidin-4-yl)oxy]ethoxy}ethoxy)ethoxy]ethyl}-13-oxo-3,6,9,15-tetraoxa-12-azaheptadecan-17-amide hydrochloride], the IC50 at human NHE3 stood at 10.7 nM. The inhibition in vivo at 3 mg/kg with SD rat (setting [1]) was 27%.
On the same counts, the results for `CN1Cc2c(Cl)cc(Cl)cc2[C@H](c2cccc(-c3nnn(CCOCCOCCNC(=O)NCCCCNC(=O)NCCOCCOCCn4nnc(-c5cccc([C@@H]6CN(C)Cc7c(Cl)cc(Cl)cc76)c5)n4)n3)c2)C1` [Example 7-9, 1,1′-Butane-1,4-diylbis[3-(2-{2-[2-(5-{3-[(4S)-6,8-dichloro-2-methyl-1,2,3,4-tetrahydroisoquinolin-4-yl]phenyl}-2H-tetrazol-2-yl)ethoxy]ethoxy}ethyl)urea]hydrochloride] are 7.3 nM and 22%.
On the same counts, the results for `CN1Cc2c(Cl)cc(Cl)cc2[C@H](c2cccc(-c3cc(NCCOCCOCCOCCNC(=O)CCC(=O)NCCOCCOCCOCCNc4cc(-c5cccc([C@@H]6CN(C)Cc7c(Cl)cc(Cl)cc76)c5)ncn4)ncn3)c2)C1` [Example 8-12, N,N′-Bis{2-[2-(2-{2-[(6-{3-[(4S)-6,8-dichloro-2-methyl-1,2,3,4-tetrahydroisoquinolin-4-yl]phenyl}pyrimidin-4-yl)amino]ethoxy}ethoxy)ethoxy]ethyl}butanediamide hydrochloride] are 6.2 nM and 6%.
Turning to `CN1Cc2c(Cl)cc(Cl)cc2[C@H](c2cccc(-c3cc(NCCOCCOCCNC(=O)NCCCCNC(=O)NCCOCCOCCNc4cnnc(-c5cccc([C@@H]6CN(C)Cc7c(Cl)cc(Cl)cc76)c5)c4)cnn3)c2)C1` [Example 7-6, 1,1′-Butane-1,4-diylbis {3-[2-(2-{2-[(6-{3-[(4S)-6,8-dichloro-2-methyl-1,2,3,4-tetrahydroisoquinolin-4-yl]phenyl}pyridazin-4-yl)amino]ethoxy}ethoxy)ethyl]urea}pentahydrochloride], on human NHE3, the IC50 was found to be 10 nM. Also, the inhibition in vivo at 3 mg/kg in the experiment on SD rat (setting [1]) is 24%.
Consider `CN1Cc2c(Cl)cc(Cl)cc2[C@H](c2cccc(-c3cn(CCOCCOCCOCCOCCOCCNC(=O)NCCCCNC(=O)NCCOCCOCCOCCOCCOCCn4cc(-c5cccc([C@@H]6CN(C)Cc7c(Cl)cc(Cl)cc76)c5)nn4)nn3)c2)C1.Cl` [Example 7-39, 1,1′-Butane-1,4-diylbis {3-[17-(4-{3-[(4S)-6,8-dichloro-2-methyl-1,2,3,4-tetrahydroisoquinolin-4-yl]phenyl}-1H-1,2,3-triazol-1-yl)-3,6,9,12,15-pentaoxaheptadec-1-yl]urea}hydrochloride], for which, on human NHE3, the IC50 amounted to 3.2 nM. Moreover, the “Rate of inhibition of phosphate absorption” value in the experiment with SD rat (oral dose 1 mg/kg) is on record as 38%.
For `CN1Cc2c(Cl)cc(Cl)cc2[C@H](c2cccc(-c3cc(NCCOCCOCCOCCNC(=O)Nc4ccc(NC(=O)NCCOCCOCCOCCNc5cc(-c6cccc([C@@H]7CN(C)Cc8c(Cl)cc(Cl)cc87)c6)ncn5)cc4)ncn3)c2)C1` [Example 7-16, 1,1′-Benzene-1,4-diylbis(3-{2-[2-(2-{2-[(6-{3-[(4S)-6,8-dichloro-2-methyl-1,2,3,4-tetrahydroisoquinolin-4-yl]phenyl}pyrimidin-4-yl)amino]ethoxy}ethoxy)ethoxy]ethyl}urea) hydrochloride], the IC50 at human NHE3 came out at 16.6 nM. Moreover, the inhibition in vivo at 3 mg/kg in the experiment with SD rat (setting [1]) turned out to be 34%.
In the same order, the values of `CN1Cc2c(Cl)cc(Cl)cc2[C@H](c2cccc(-c3cc(OCCOCCOCCNC(=O)[C@H](O)[C@@H](O)C(=O)NCCOCCOCCOc4cc(-c5cccc([C@@H]6CN(C)Cc7c(Cl)cc(Cl)cc76)c5)ncn4)ncn3)c2)C1` [Example 8-16, (2R,3R)-N,N′-Bis[2-(2-{2-[(6-{3-[(4S)-6,8-dichloro-2-methyl-1,2,3,4-tetrahydroisoquinolin-4-yl]phenyl}pyrimidin-4-yl)oxy]ethoxy}ethoxy)ethyl]-2,3-dihydroxybutanediamide hydrochloride] are 7.6 nM and 31%.
In the same order, the values of `CN1Cc2c(Cl)cc(Cl)cc2[C@H](c2cccc(-c3cn(CCOCCOCCOCCOCCOCCNC(=O)[C@H](O)[C@@H](O)C(=O)NCCOCCOCCOCCOCCOCCn4cc(-c5cccc([C@@H]6CN(C)Cc7c(Cl)cc(Cl)cc76)c5)nn4)nn3)c2)C1` [Example 6-10, (2R,3R)—N,N′-Bis[17-(4-{3-[(4S)-6,8-dichloro-2-methyl-1,2,3,4-tetrahydroisoquinolin-4-yl]phenyl}-1H-1,2,3-triazol-1-yl)-3,6,9,12,15-pentaoxaheptadec-1-yl]-2,3-dihydroxybutanediamide hydrochloride] are 6.2 nM and 38%.
In the same order, the values of `CN1Cc2c(Cl)cc(Cl)cc2[C@H](c2cccc(-c3cn(CCOCCOCCOCCOCCNC(=O)Nc4ccc(NC(=O)NCCOCCOCCOCCOCCn5cc(-c6cccc([C@@H]7CN(C)Cc8c(Cl)cc(Cl)cc87)c6)nn5)cc4)nn3)c2)C1` [Example 7-45, 1,1′-Benzene-1,4-diylbis {3-[14-(4-{3-[(4S)-6,8-dichloro-2-methyl-1,2,3,4-tetrahydroisoquinolin-4-yl]phenyl}-1H-1,2,3-triazol-1-yl)-3,6,9,12-tetraoxatetradec-1-yl]urea}hydrochloride] are 5.7 nM and 29%.
In the case of `CN1Cc2c(Cl)cc(Cl)cc2C(c2cccc(-c3cnnc(NCCOCCOCCNC(=O)C(O)C(O)C(=O)NCCOCCOCCNc4cc(-c5cccc(C6CN(C)Cc7c(Cl)cc(Cl)cc76)c5)cnn4)c3)c2)C1` [Example 8-14, (2R,3R)-N-[2-(2-{2-[(5-{3-[(4R)-6,8-Dichloro-2-methyl-1,2,3,4-tetrahydroisoquinolin-4-yl]phenyl}pyridazin-3-yl)amino]ethoxy}ethoxy)ethyl]-N′-[2-(2-{2-[(5-{3-[(4S)-6,8-dichloro-2-methyl-1,2,3,4-tetrahydroisoquinolin-4-yl]phenyl}pyridazin-3-yl)amino]ethoxy}ethoxy)ethyl]-2,3-dihydroxybutanamide tetrahydrochloride], the IC50 on human NHE3 amounted to 9.1 nM. Moreover, the inhibition in vivo at 1 mg/kg in the experiment with SD rat (Rattus norvegicus, 0.5 h, oral dose 1 mg/kg, read-out: Rate of inhibition of phosphate absorption) amounted to 46%.
For the molecule `CN1Cc2c(Cl)cc(Cl)cc2[C@H](c2cccc(-c3cn(CCOCCOCCOCCOCCOCCNC(=O)Nc4ccc(NC(=O)NCCOCCOCCOCCOCCOCCn5cc(-c6cccc([C@@H]7CN(C)Cc8c(Cl)cc(Cl)cc87)c6)nn5)cc4)nn3)c2)C1` [Example 7-46, 1,1′-Benzene-1,4-diylbis {3-[17-(4-{3-[(4S)-6,8-dichloro-2-methyl-1,2,3,4-tetrahydroisoquinolin-4-yl]phenyl}-1H-1,2,3-triazol-1-yl)-3,6,9,12,15-pentaoxaheptadec-1-yl]urea}hydrochloride], the IC50 on human NHE3 worked out at 10.9 nM. Besides, the inhibition in vivo at 3 mg/kg with SD rat (setting [1]) was found to be 23%.
